According to patent US11214594B2, “Antimicrobial peptide having synergistic antibacterial effect with antibiotics on multidrug resistant bacteria, and use thereof” (priority 2016, dated 2022):
Like-named read-outs stand apart in the source and are kept apart here. Where a SMILES comes first, the peptide text is derived from it.

Tests used:
B. subtilis = test: microbe, parasite or virus in culture; type: cell-based, Bacillus subtilis
Summary of the method: (§1)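 MIC read-out = lowest peptide level with no bacterial proliferation. Strains diluted in MH medium to 2×10^6 CFU; peptide twofold serial dilutions in MH added 1:1 in microtiter wells.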

MDREC 1229 [1] = type: cell-based, Escherichia coli
Summary of the method: (§2)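 Strains in MH medium at 2×10^6 CFU/ml were mixed with peptide diluted stepwise (2:1) from its MIC, then antibiotic dilutions in MH medium were added to give the antibiotic MIC. The reversed set-up, peptide titrated against fixed antibiotic, gave the peptide MIC.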

E. coli [2] = type: cell-based, Escherichia coli; details: E. coli
Summary of the method: as §2

MDREC 1229 [3] = test: MIC of antibiotic during combined treatment with antimicrobial peptide; type: cell-based, Escherichia coli
Summary of the method: as §2

MDRST 8009 = type: cell-based, Salmonella typhimurium; details: agent alone
Summary of the method: as §1

P. aeruginosa = test: microbe, parasite or virus in culture; type: cell-based, Pseudomonas aeruginosa
Summary of the method: as §1

A. baumannii [4] = test: MIC of antimicrobial peptide during combined treatment with antibiotic; type: cell-based, Acinetobacter baumannii
Summary of the method: as §2

MDRAB 12035 = test: as above; type: cell-based, Acinetobacter baumannii
Summary of the method: as §2

S. epidermidis = test: microbe, parasite or virus in culture; type: cell-based, Staphylococcus epidermidis
Summary of the method: as §1

MDREC 1229 [5] = test: microbe, parasite or virus in culture; type: cell-based, Escherichia coli
Summary of the method: as §1

E. coli [6] = test: microbe, parasite or virus in culture; type: cell-based, Escherichia coli; details: 16 h
Summary of the method: as §1

A. baumannii [7] = test: MIC of antibiotic during combined treatment with antimicrobial peptide; type: cell-based, Acinetobacter baumannii; details: for Antibiotic MIC, Erythromycin / Antibiotic MIC, Linezolid / Antibiotic MIC, Vancomycin: A. baumannii
Summary of the method: (§3)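 Read-out is the MIC of each combined solution, obtained from MH-medium dilutions of antibiotic added well by well, with a reversed-condition run as well.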

E. coli [8] = test: as above; type: cell-based, Escherichia coli; details: for Antibiotic MIC, Erythromycin / Antibiotic MIC, Linezolid / Antibiotic MIC, Vancomycin: E. coli
Summary of the method: as §3

[9] = linezolid 64 μg/ml (Conc./MIC 1/8)
[10] = linezolid 512 μg/ml (Conc./MIC 1)
[11] = vancomycin 512 μg/ml (Conc./MIC 1/2)
[12] = vancomycin 1024 μg/ml (Conc./MIC 1)
[13] = peptide treatment concentration 1 μg/ml
[14] = peptide treatment concentration 2 μg/ml
[15] = peptide treatment concentration 4 μg/ml
[16] = peptide treatment concentration 6 μg/ml
[17] = peptide treatment concentration 8 μg/ml
[18] = peptide treatment concentration 16 μg/ml
[19] = peptide treatment concentration 32 μg/ml
[20] = peptide treatment concentration 64 μg/ml
[21] = erythromycin 4 μg/ml (Conc./MIC 1/8)
[22] = erythromycin 8 μg/ml (Conc./MIC 1/4)
[23] = erythromycin 16 μg/ml (Conc./MIC 1/2)
[24] = erythromycin 32 μg/ml (Conc./MIC 1)
[25] = combined with peptide at 1 μg/ml
[26] = combined with peptide at 2 μg/ml
[27] = combined with peptide at 4 μg/ml
[28] = combined with peptide at 6 μg/ml
[29] = combined with peptide at 8 μg/ml
[30] = combined with peptide at 16 μg/ml
[31] = combined with peptide at 32 μg/ml
[32] = combined with peptide at 64 μg/ml

CC[C@H](C)[C@H](NC(=O)[C@H](CCCCN)NC(=O)[C@H](Cc1c[nH]c2ccccc12)NC(=O)[C@@H](N)CCCNC(=N)N)C(=O)N[C@@H](Cc1ccccc1)C(=O)N[C@@H](CCCCN)C(=O)N[C@@H](CCCCN)C(=O)N[C@H](C(=O)N1CCC[C@H]1C(=O)N[C@@H](CCCCN)C(=O)N[C@@H](CC(C)C)C(=O)N[C@@H](CC(C)C)C(=O)N[C@@H](Cc1c[nH]cn1)C(=O)N[C@@H](CCC(=O)O)C(=O)N[C@@H](C)C(=O)N[C@@H](CCCCN)C(=O)N[C@@H](CCCCN)C(=O)N[C@@H](Cc1c[nH]c2ccccc12)C(N)=O)[C@@H](C)CC [PapMA-13, RWK IFK KIP KLL HEA KKW-NH2] (H-RWKIFKKIPKLLHEAKKW-NH2; N-terminus assumed)
0.25 µg/mL: Peptide MIC during treatment with antibiotic (A. baumannii [4]; [11]) | Peptide MIC during treatment with antibiotic (A. baumannii [4]; vancomycin […] (Conc./MIC 1/4)) | Antibiotic MIC, Erythromycin (E. coli [8]; erythromycin combined with peptide at 8 μg/ml)
128 µg/mL: Antibiotic MIC, Linezolid (MDREC 1229 [3]; [14]) | Minimal inhibitory concentration MIC (P. aeruginosa) | Antibiotic MIC, Vancomycin (A. baumannii [7]; [25])
1 µg/mL: Peptide MIC during treatment with antibiotic (MDREC 1229 [1]; [12]) | Peptide MIC during treatment with antibiotic (A. baumannii [4]; [23]) | Peptide MIC during treatment with antibiotic (A. baumannii [4]; linezolid […] (Conc./MIC 1/2)) | Peptide MIC during treatment with antibiotic (A. baumannii [4]; vancomycin […] (Conc./MIC 1/8)) | Peptide MIC during treatment with erythromycin (MDRAB 12035; [23]) | Peptide MIC during treatment with linezolid (MDRAB 12035; linezolid […] (Conc./MIC 1/2)) | Peptide MIC during treatment with linezolid (MDRAB 12035; linezolid […] (Conc./MIC 1/4)) | Peptide MIC during treatment with vancomycin (MDRAB 12035; [11]) | Peptide MIC during treatment with vancomycin (MDRAB 12035; [12]) | Peptide MIC during treatment with vancomycin (MDRAB 12035; vancomycin […] (Conc./MIC 1/4)) | Antibiotic MIC, Erythromycin (A. baumannii [7]; [27]) | Antibiotic MIC, Vancomycin (A. baumannii [7]; [28]) | Antibiotic MIC, Linezolid (A. baumannii [7]; [29]) | Antibiotic MIC, Erythromycin (E. coli [8]; erythromycin combined with peptide at 6 μg/ml) | Antibiotic MIC, Linezolid (E. coli [8]; linezolid combined with peptide at 8 μg/ml)
16 µg/mL: Antibiotic MIC, Vancomycin (MDREC 1229 [3]; [16]) | Minimal inhibitory concentration MIC (MDRST 8009) | Minimal inhibitory concentration MIC (MDREC 1229 [5]) | Peptide MIC, peptide alone (MDREC 1229 [5]) | Minimal inhibitory concentration MIC (E. coli [6]) | Antibiotic MIC, Erythromycin (A. baumannii [7]; [25]) | Antibiotic MIC, Erythromycin (E. coli [8]; erythromycin combined with peptide at 2 μg/ml) | Antibiotic MIC, Vancomycin (E. coli [8]; vancomycin combined with peptide at 4 μg/ml)
0.125 µg/mL: Antibiotic MIC, Erythromycin (A. baumannii [7]; [29])
32 µg/mL: Antibiotic MIC, Erythromycin (MDREC 1229 [3]; [14]) | Antibiotic MIC, Linezolid (A. baumannii [7]; [26])
>128 µg/mL: Minimal inhibitory concentration MIC (B. subtilis) | Antibiotic MIC, Erythromycin (MDREC 1229 [3]; [13]) | Antibiotic MIC, Linezolid (MDREC 1229 [3]; [13]) | Antibiotic MIC, Vancomycin (MDREC 1229 [3]; [13]) | Antibiotic MIC, Vancomycin (MDREC 1229 [3]; [14]) | Minimal inhibitory concentration MIC (S. epidermidis) | Antibiotic MIC, Linezolid (E. coli [8]; linezolid combined with peptide at 1 μg/ml) | Antibiotic MIC, Vancomycin (E. coli [8]; vancomycin combined with peptide at 1 μg/ml)
8 µg/mL: Peptide MIC during treatment with antibiotic (MDREC 1229 [1]; vancomycin […] (Conc./MIC 1/8)) | Antibiotic MIC, Erythromycin (MDREC 1229 [3]; [15]) | Antibiotic MIC, Linezolid (MDREC 1229 [3]; [16]) | Antibiotic MIC, Erythromycin (A. baumannii [7]; [26]) | Antibiotic MIC, Linezolid (E. coli [8]; linezolid combined with peptide at 4 μg/ml) | Antibiotic MIC, Vancomycin (E. coli [8]; vancomycin combined with peptide at 6 μg/ml)
4 µg/mL: Peptide MIC during treatment with antibiotic (MDREC 1229 [1]; [9]) | Peptide MIC during treatment with antibiotic (MDREC 1229 [1]; vancomycin […] (Conc./MIC 1/4)) | Antibiotic MIC, Erythromycin (MDREC 1229 [3]; [16]) | Antibiotic MIC, Linezolid (MDREC 1229 [3]; [17]) | Antibiotic MIC, Vancomycin (MDREC 1229 [3]; [17]) | Peptide MIC during treatment with antibiotic (A. baumannii [4]; [21]) | Peptide MIC during treatment with erythromycin (MDRAB 12035; [21]) | Antibiotic MIC, Linezolid (A. baumannii [7]; [27]) | Antibiotic MIC, Vancomycin (A. baumannii [7]; [27]) | Antibiotic MIC, Linezolid (E. coli [8]; linezolid combined with peptide at 6 μg/ml)
higher level than the PapMA-1 peptide: Synergistic effect of antibacterial activity with existing antibiotics compared with PapMA-1 (A. baumannii [7]; A. baumannii and MDRAB 12035) | Synergistic effect of antibacterial activity with existing antibiotics compared with PapMA-1 (E. coli [8]; E. coli and MDREC1229)
0.5 µg/mL: Antibiotic MIC, Erythromycin (MDREC 1229 [3]; [17]) | Antibiotic MIC, Erythromycin (A. baumannii [7]; [28]) | Antibiotic MIC, Vancomycin (A. baumannii [7]; [29])
64 µg/mL: Antibiotic MIC, Linezolid (MDREC 1229 [3]; [15]) | Antibiotic MIC, Vancomycin (MDREC 1229 [3]; [15]) | Antibiotic MIC, Linezolid (A. baumannii [7]; [25]) | Antibiotic MIC, Vancomycin (A. baumannii [7]; [26]) | Antibiotic MIC, Erythromycin (E. coli [8]; erythromycin combined with peptide at 1 μg/ml) | Antibiotic MIC, Linezolid (E. coli [8]; linezolid combined with peptide at 2 μg/ml) | Antibiotic MIC, Vancomycin (E. coli [8]; vancomycin combined with peptide at 2 μg/ml)
2 µg/mL: Peptide MIC during treatment with antibiotic (MDREC 1229 [1]; erythromycin 32 μg/ml (Conc./MIC 1/8)) | Peptide MIC during treatment with antibiotic (MDREC 1229 [1]; erythromycin 64 μg/ml (Conc./MIC 1/4)) | Peptide MIC during treatment with antibiotic (MDREC 1229 [1]; erythromycin […] (Conc./MIC 1/2)) | Peptide MIC during treatment with antibiotic (MDREC 1229 [1]; linezolid […] (Conc./MIC 1/2)) | Peptide MIC during treatment with antibiotic (MDREC 1229 [1]; linezolid […] (Conc./MIC 1/4)) | Peptide MIC during treatment with antibiotic (MDREC 1229 [1]; [11]) | Peptide MIC during treatment with antibiotic (A. baumannii [4]; [22]) | Peptide MIC during treatment with antibiotic (A. baumannii [4]; linezolid 32 μg/ml (Conc./MIC 1/8)) | Peptide MIC during treatment with antibiotic (A. baumannii [4]; linezolid 64 μg/ml (Conc./MIC 1/4)) | Peptide MIC during treatment with erythromycin (MDRAB 12035; [22]) | Peptide MIC during treatment with linezolid (MDRAB 12035; [9]) | Peptide MIC during treatment with vancomycin (MDRAB 12035; vancomycin […] (Conc./MIC 1/8)) | Antibiotic MIC, Linezolid (A. baumannii [7]; [28]) | Antibiotic MIC, Erythromycin (E. coli [8]; erythromycin combined with peptide at 4 μg/ml) | Antibiotic MIC, Vancomycin (E. coli [8]; vancomycin combined with peptide at 8 μg/ml)
0 µg/mL: Peptide MIC during treatment with antibiotic (MDREC 1229 [1]; erythromycin […] (Conc./MIC 1)) | Peptide MIC during treatment with antibiotic (MDREC 1229 [1]; [10]) | Peptide MIC (E. coli [2]; with Erythromycin […] (Conc./MIC 1)) | Peptide MIC (E. coli [2]; with Linezolid […] (Conc./MIC 1)) | Peptide MIC (E. coli [2]; with Vancomycin 1024 μg/ml (Conc./MIC 1)) | Antibiotic MIC, Erythromycin (MDREC 1229 [3]; [18]) | Antibiotic MIC, Linezolid (MDREC 1229 [3]; [18]) | Antibiotic MIC, Vancomycin (MDREC 1229 [3]; [18]) | Antibiotic MIC, Erythromycin (MDREC 1229 [3]; [19]) | Antibiotic MIC, Linezolid (MDREC 1229 [3]; [19]) | Antibiotic MIC, Vancomycin (MDREC 1229 [3]; [19]) | Antibiotic MIC, Erythromycin (MDREC 1229 [3]; [20]) | Antibiotic MIC, Linezolid (MDREC 1229 [3]; [20]) | Antibiotic MIC, Vancomycin (MDREC 1229 [3]; [20]) | Peptide MIC during treatment with antibiotic (A. baumannii [4]; [24]) | Peptide MIC during treatment with antibiotic (A. baumannii [4]; linezolid […] (Conc./MIC 1)) | Peptide MIC during treatment with antibiotic (A. baumannii [4]; [12]) | Peptide MIC during treatment with erythromycin (MDRAB 12035; [24]) | Peptide MIC during treatment with linezolid (MDRAB 12035; [10]) | Antibiotic MIC, Erythromycin (A. baumannii [7]; [30]) | Antibiotic MIC, Linezolid (A. baumannii [7]; [30]) | Antibiotic MIC, Vancomycin (A. baumannii [7]; [30]) | Antibiotic MIC, Erythromycin (A. baumannii [7]; [31]) | Antibiotic MIC, Linezolid (A. baumannii [7]; [31]) | Antibiotic MIC, Vancomycin (A. baumannii [7]; [31]) | Antibiotic MIC, Erythromycin (A. baumannii [7]; [32]) | Antibiotic MIC, Linezolid (A. baumannii [7]; [32]) | Antibiotic MIC, Vancomycin (A. baumannii [7]; [32]) | Antibiotic MIC, Erythromycin (E. coli [8]; erythromycin combined with peptide at 16 μg/ml) | Antibiotic MIC, Erythromycin (E. coli [8]; erythromycin combined with peptide at 32 μg/ml) | Antibiotic MIC, Erythromycin (E. coli [8]; erythromycin combined with peptide at 64 μg/ml) | Antibiotic MIC, Linezolid (E. coli [8]; linezolid combined with peptide at 16 μg/ml) | Antibiotic MIC, Linezolid (E. coli [8]; linezolid combined with peptide at 32 μg/ml) | Antibiotic MIC, Linezolid (E. coli [8]; linezolid combined with peptide at 64 μg/ml) | Antibiotic MIC, Vancomycin (E. coli [8]; vancomycin combined with peptide at 16 μg/ml) | Antibiotic MIC, Vancomycin (E. coli [8]; vancomycin combined with peptide at 32 μg/ml) | Antibiotic MIC, Vancomycin (E. coli [8]; vancomycin combined with peptide at 64 μg/ml)
